Assay [1] deals with C. difficile 630 ATCC BAA-1382. Nature of the assay: MIC broth microdilution, C. difficile 630. It counts as cell-based, Clostridium difficile. Particulars: 24 h, median of at least n = 4; for MIC: Clostridioides difficile, ATCCBAA1382, MtzS. How it is done: (§1) All compounds were tested for activity against a set of anaerobic C. difficile bacteria (630 ATCC BAA-1382, NAP1/027 M7404, NAP1/027 ATCC BAA-1803, VPI10463 ATCC 43255, CD26A54_S and CD26A54_R) and representative ESKAPE pathogens S. aureus (MRSA ATCC 43300), E. coli (ATCC 25922), K. pneumoniae (ATCC 700603), A. baumannii (ATCC 19606) and P. aeruginosa (ATCC 27853) using a standard broth microdilution assay. Selected compounds were tested for activity against H. pylori strains (26695, and clinical isolates MtzS 13/25, MtzR 98/285 and MtzR 13/61) using agar plate dilution, and for antimicrobial activity against […] Gram-positive bacterial strains: Enterococcus faecalis (VanA clinical isolate), Enterococcus faecium (MDR VanA ATCC 51559), Streptococcus pneumoniae (MDR ATCC 700677), S. aureus (MRSA ATCC 43300, MRSA clinical isolate, MRSA/DRSA clinical isolate, GISA NARSA NRS 1, GISA NARSA NRS 17, VRSA NARSA VRS1, VRSA NARSA VRS4 and VRSA NARSA VRS10) using broth microdilution. C. difficile strains were grown at 37 °C in a COY anaerobic chamber (5% H2, 10% CO2, 85% N2). H. pylori strains were grown at 37 °C under a microaerobic atmosphere (5% O2, 10% CO2). All facultative anaerobic bacteria were grown at 37 °C with normal atmospheric oxygen levels. All experiments were performed in duplicate with metronidazole, vancomycin, linezolid or colistin as positive controls for relevant strains (see Table 1). Positive growth control of bacteria and DMSO as well as a negative control of only media were included for every plate. Full assay details are provided in the supplementary information.
C. difficile ATCC BAA-1382, ATCC BAA-1803, ATCC 43255 and M7404 heat shocked spore stocks (10 µL) were transferred into the anaerobic chamber and 10 µL streaked onto pre-reduced (at least 2.5 hr in anaerobic chamber) BHIS agar plates supplemented with 0.1% w/v sodium taurocholate (BHIS(TA)). Plates were incubated for 24 hours prior to assay to give colonies of size 1-3mm diameter with characteristic uneven borders.
The minimum inhibition concentration was determined according to the CLSI Methods with modifications in broth and inoculum for C. difficile according to Babakhani et al.^7,8 Briefly, compounds were prepared to 20X final concentration in 100% water, 60% DMSO and 40% water or 60% DMSO and 40% media. The compounds along with standard antibiotics were serially diluted two-fold across the wells of 96-well non-binding surface plates (Non binding surface, Corning). The plates were placed in the anaerobic chamber overnight to reduce. C. difficile bacteria from BHIS(TA) agar plates were cultured anaerobically in BHIS at 37 °C overnight. A sample of culture was then diluted 40-fold in BHIS broth and incubated at 37 °C for approximately 4.5 hrs. The resultant mid-log phase culture (OD600= 0.5-0.6) was diluted to the final concentration of ~1×10^6 CFU/mL, then 50 µL was added to each well of the compound-containing 96-well plates. This gave final cell concentration of 5×10^5 CFU/mL, final volume 100 µL and 3% maximum DMSO concentration. Compound concentration was typically from 64 to 0.03 µg/mL. An antibiotic standard was included on each 96 well plate as well as a positive growth control (no compound) and sterility control (no bacteria). All the plates were covered and incubated at 37 °C for 24 h. MICs were the lowest concentration showing no visible growth.
A general note: Broth dilution looks for growth in wells or tubes with falling amounts of substance.

The test system of assay [2] is G. lamblia BRIS/83/HEPU/106 (106). More on the design: method as in earlier work. The note with it: MtzS, crude Mtz-triazoles (>85% purity), ref 15 (Miyamoto et al.); read-out: EC50 G. lamblia 106, Lit.; cited from earlier work.
For assay [3], the system named is G. lamblia BRIS/87/HEPU/713 (713). More on the design: method as in earlier work. Particulars: MtzS, crude Mtz-triazoles (>85% purity), ref 15 (Miyamoto et al.); read-out: EC50 G. lamblia 713, Lit.; cited from earlier work.
Another assay relates to G. lamblia 713-M3 (713M). More on the design: method as in earlier work. Particulars: MtzR, crude Mtz-triazoles (>85% purity), ref 15 (Miyamoto et al.); read-out: EC50 G. lamblia 713M, Lit.; cited from earlier work.
Another assay deals with H. pylori 26695. Nature of the assay: MIC agar dilution, H. pylori 26695. In kind it is cell-based. The note with it: Helicobacter pylori, MtzS, microaerobic. On the procedure:
as §1
(§2) Helicobacter pylori strains, with a range of resistance levels to metronidazole (256 µg/ml, 64 µg/ml, 24 µg/ml, 2 µg/ml, and 0.04 µg/ml), were selected and obtained from Helicobacter Research Laboratory, University of Western Australia. The resistance strength to metronidazole was recorded according to eTest (bioMérieux). H. pylori strain 26695 was used as the control. H. pylori was maintained on the non-selective Columbia blood agar plates (CBA) (Columbia agar base Oxoid) with 5% horse blood and incubated at 37 °C and 10% CO2 for 48 hrs. […] Each of the H. pylori strains were harvested, OD600 calibrated to 0.3, and spotted in triplicate on CBA pre-mixed with the compound. The lowest concentration of antibiotic showing no growth was read as the MIC. The experiment was performed in duplicate.
A general note: In agar dilution the substance is mixed into plates at graded concentrations.

The test system of assay [4] is H. pylori clinical isolate 13/25. Nature of the assay: MIC agar dilution, H. pylori 13/25. It counts as cell-based. Particulars: Helicobacter pylori, MtzS clinical isolate. On the procedure:
as §1, §2

Assay [5] deals with H. pylori clinical isolate 98/285. Nature of the assay: MIC agar dilution, H. pylori 98/285. Particulars: Helicobacter pylori, MtzR clinical isolate. It counts as cell-based. How it is done:
as §1, §2

Assay [6] concerns H. pylori clinical isolate 13/61. Nature of the assay: MIC agar dilution, H. pylori 13/61. The note with it: Helicobacter pylori, MtzR clinical isolate. In kind it is cell-based. On the procedure: as §1, §2

≈ marks a conversion by molar mass, not a printed value.

The term MIC denotes the lowest concentration that inhibits growth of the organism. Low values mean inhibition by little substance, high ones a need for much substance. The term EC50 denotes the concentration giving half of the maximal effect.

The molecule `Cc1ncc([N+](=O)[O-])n1CCn1cc(-c2ccc(Cl)c(Cl)c2)nn1` [Compound 4d, 1-(2-(2-methyl-5-nitro-1H-imidazol-1-yl)ethyl)-4-(3,4-dichlorophenyl)-1H-1,2,3-triazole] had an MIC in assay [1] of 0.5 µg/mL (≈ 1.36 µM). Moreover, the figures for the EC50 (in assay [2]; in assay [3]; in the assay on G. lamblia 713-M3 (713M)) were 1400 nM, 310 nM and 570 nM, respectively.
As to `Cc1ncc([N+](=O)[O-])n1CCn1cc(Cn2cccn2)nn1` [Compound 4g, 1-(2-(2-methyl-5-nitro-1H-imidazol-1-yl)ethyl)-4-((1H-pyrazol-1-yl)methyl)-1H-1,2,3-triazole], the MIC in assay [1] was 1 µg/mL (≈ 3.31 µM); in the assay on H. pylori 26695, 2 to 4 µg/mL (≈ 6.62 to 13.2 µM); in assay [4] it was 2 µg/mL (≈ 6.62 µM); in assay [5] it was 16 to 32 µg/mL (≈ 52.9 to 106 µM); in assay [6], 16 to 32 µg/mL (≈ 52.9 to 106 µM).
Molecule `Cc1ncc([N+](=O)[O-])n1CCn1cc(C(O)c2ccccc2)nn1` (stereo not drawn) [Compound 4l, 1-(2-(2-methyl-5-nitro-1H-imidazol-1-yl)ethyl)-4-(1-phenyl-1-hydroxylmethyl)-1H-1,2,3-triazole] had a minimal inhibitory concentration (MIC) in assay [1] of 1 µg/mL (≈ 3.05 µM).
`Cc1ncc([N+](=O)[O-])n1CCn1cc(CN2CCS(=O)(=O)CC2)nn1` [Compound 4o, 1-(2-(2-methyl-5-nitro-1H-imidazol-1-yl)ethyl)-4-((1,1-dioxothiomorpholin-4-yl)methyl)-1H-1,2,3-triazole]: the MIC in assay [1] is greater than 64 µg/mL.
Turning to `Cc1ncc([N+](=O)[O-])n1CCN=[N+]=[N-]` [Compound 3, 1-(2-azidoethyl)-2-methyl-5-nitro-1H-imidazole], the “MIC C. difficile 630” value in assay [1] (MtzS) was 1 µg/mL (≈ 5.1 µM).
For `COC(=O)c1cn(CCn2c([N+](=O)[O-])cnc2C)nn1` [Compound 4f, 1-(2-(2-methyl-5-nitro-1H-imidazol-1-yl)ethyl)-4-(methoxycarbonyl)-1H-1,2,3-triazole], the MIC is 1 µg/mL (≈ 3.57 µM) in assay [1], 32 to 64 µg/mL (≈ 114 to 228 µM) in the assay on H. pylori 26695 and 32 to 64 µg/mL (≈ 114 to 228 µM) in assay [4].
Take `Cc1ncc([N+](=O)[O-])n1CCn1cc(-c2ccsc2)nn1` [Compound 4n, 1-(2-(2-methyl-5-nitro-1H-imidazol-1-yl)ethyl)-4-(thiophen-3-yl)-1H-1,2,3-triazole]: the MIC in assay [1] is 0.5 µg/mL (≈ 1.64 µM). Moreover, the EC50 in assay [2] is 340 nM; in assay [3], 230 nM; in the assay on G. lamblia 713-M3 (713M) it was 6900 nM.
For `Cc1ncc([N+](=O)[O-])n1CCn1cc(C(=O)O)nn1` [Compound 4s, 1-(2-(2-methyl-5-nitro-1H-imidazol-1-yl)ethyl)-4-(carboxy)-1H-1,2,3-triazole], the MIC is 64 µg/mL (≈ 240 µM) in assay [1]; greater than 64 µg/mL in the assay with H. pylori 26695; greater than 64 µg/mL in assay [4]; greater than 64 µg/mL in assay [5]; greater than 64 µg/mL in assay [6].
For the molecule `Cc1ncc([N+](=O)[O-])n1CCn1cc(CN)nn1.O=C(O)C(F)(F)F` [Compound 4t, 1-(2-(2-methyl-5-nitro-1H-imidazol-1-yl)ethyl)-4-(aminomethyl)-1H-1,2,3-triazole trifluoroacetate salt], the MIC in assay [1] was greater than 64 µg/mL.
`Cc1ncc([N+](=O)[O-])n1CCn1cc(-c2ncccn2)nn1` [Compound 4j, 1-(2-(2-methyl-5-nitro-1H-imidazol-1-yl)ethyl)-4-(2-pyrimidinyl)-1H-1,2,3-triazole] showed an MIC in assay [1] of 2 µg/mL (≈ 6.66 µM).
On the same count and under the same terms, the figure for `COc1ccc(-c2cn(CCn3c([N+](=O)[O-])cnc3C)nn2)cc1` [Compound 4b, 1-(2-(2-methyl-5-nitro-1H-imidazol-1-yl)ethyl)-4-(4-methoxyphenyl)-1H-1,2,3-triazole] is 0.5 µg/mL (≈ 1.52 µM); for `Cc1ncc([N+](=O)[O-])n1CCn1cc(-c2cncnc2)nn1` [Compound 4i, 1-(2-(2-methyl-5-nitro-1H-imidazol-1-yl)ethyl)-4-(5-pyrimidinyl)-1H-1,2,3-triazole] it is 1 µg/mL (≈ 3.33 µM).
With `Cc1ncc([N+](=O)[O-])n1CCn1cc(-c2ccc(Cl)cc2)nn1` [Compound 4c, 1-(2-(2-methyl-5-nitro-1H-imidazol-1-yl)ethyl)-4-(4-chlorophenyl)-1H-1,2,3-triazole], in assay [1], the MIC was 0.5 µg/mL (≈ 1.5 µM).
`Cc1ncc([N+](=O)[O-])n1CCn1cc(-c2ccccn2)nn1` [Compound 4h, 1-(2-(2-methyl-5-nitro-1H-imidazol-1-yl)ethyl)-4-(2-pyridinyl)-1H-1,2,3-triazole.xTFA]: the MIC in assay [1] worked out at 0.5 µg/mL; with H. pylori 26695, 2 µg/mL; in assay [4] it was 1 µg/mL; in assay [5], 32 µg/mL; in assay [6] it was 16 µg/mL. The concentration for a half-maximal effect (EC50) in assay [2] was 560 nM; in assay [3] it was 350 nM; with G. lamblia 713-M3 (713M) it was 14000 nM.
`Cc1ncc([N+](=O)[O-])n1CCn1cc(CCO)nn1` [Compound 4p, 1-(2-(2-methyl-5-nitro-1H-imidazol-1-yl)ethyl)-4-(2-hydroxyethyl)-1H-1,2,3-triazole]: the MIC in assay [1] was 8 µg/mL (≈ 30 µM).
On to `Cc1ncc([N+](=O)[O-])n1CCn1cc(Cc2ccccc2)nn1` [Compound 4k, 1-(2-(2-methyl-5-nitro-1H-imidazol-1-yl)ethyl)-4-benzyl-1H-1,2,3-triazole], for which, in assay [1], the MIC was 0.5 µg/mL (≈ 1.6 µM). Moreover, the figures for the EC50 (in assay [2]; in assay [3]; with G. lamblia 713-M3 (713M)) were 710 nM, 390 nM and 5200 nM, respectively.
Take `Cc1ncc([N+](=O)[O-])n1CCn1cc(CN(C)Cc2ccccc2)nn1` [Compound 4m, 1-(2-(2-methyl-5-nitro-1H-imidazol-1-yl)ethyl)-4-(N-benzyl, N-methylaminomethyl)-1H-1,2,3-triazole]: the MIC in assay [1] turned out to be 2 µg/mL (≈ 5.63 µM); with H. pylori 26695 it was 4 µg/mL (≈ 11.3 µM); in assay [4], 2 µg/mL (≈ 5.63 µM); in assay [6], 16 µg/mL (≈ 45 µM). Also, the results for the EC50 (in assay [2]; in assay [3]; with G. lamblia 713-M3 (713M)) were 300 nM, 910 nM and 9300 nM, respectively.
In assay [1], `Cc1ncc([N+](=O)[O-])n1CCn1cc(CCC(=O)O)nn1` [Compound 4r, sodium 1-(2-(2-methyl-5-nitro-1H-imidazol-1-yl)ethyl)-4-(carboxyethyl)-1H-1,2,3-triazole] returned an MIC greater than 64 µg/mL.
`Cc1ccc(-c2cn(CCn3c([N+](=O)[O-])cnc3C)nn2)cc1` [Compound 4e, 1-(2-(2-methyl-5-nitro-1H-imidazol-1-yl)ethyl)-4-(p-tolyl)-1H-1,2,3-triazole] had an MIC in assay [1] of 0.5 µg/mL (≈ 1.6 µM). In addition, the EC50 was 2100 nM in assay [2], 530 nM in assay [3] and 8100 nM with G. lamblia 713-M3 (713M).

These data come from article PMC4550478, “Metronidazole-triazole conjugates: Activity against Clostridium difficile and parasites” (European Journal of Medicinal Chemistry, 2015).
